Laboratory results reported in PMC5400251, “Effect of quinoline based 1,2,3-triazole and its structural analogues on growth and virulence attributes of Candida albicans” (PLoS ONE, 2017).
In brackets after ≈: the same amount, converted by molar mass.

How the values were obtained:
[1] = tested on: C. albicans D39 (FLC-sensitive clinical isolate); test: Broth dilution IC50 determination; type: cell-based; conditions: Candida albicans, 24 h; read-out: Anti-Candida Activity (IC50± S.D.) C. albicans D39
Protocol: (§1) Broth dilution technique was employed to determine the IC50 values of all the synthesized 1,2,3 triazole derivatives (3a-c) against C. albicans ATCC 90028, C. glabrata ATCC 90030, C. tropicalis ATCC 750 and four clinical isolates of C. albicans namely D27, D31, D39 (FLC-sensitive) and D15.9 (FLC-resistant). The strains were maintained on yeast extract:peptone:dextrose ([…]) nutrient agar (2.5%) slants at 4°C. The test compounds were dissolved in DMSO with less than 4% concentration of it in the final test volume. Different concentrations (1000… 7.8 μg/mL) of test compounds in Sabouraud dextrose (SD) broth medium were dispensed into the wells, then inoculated with the test organism with approx. 2.5 × 10^3 cells/mL and incubated at 37°C for 24 h. After incubation period, the optical density was measured at 600 nm by using Thermo Scientific Multiskan Go plate reader. […] All the experiments were done in triplicate at separate times.

[2] = tested on: C. tropicalis ATCC 750; test: Broth dilution IC50 determination; type: cell-based; conditions: Candida tropicalis, ATCC750, SD broth, 37°C, 24 h, OD 600 nm, read-out: Anti-Candida Activity (IC50± S.D.) C. tropicalis ATCC750
Protocol: as §1

[3] = target: T1, plasma membrane H+ ATPase (Candida albicans, UniProt P28877); test: Measurement of intracellular pH (pHi); type: cell-based, C. albicans ATCC 90028; conditions: 100 μg/mL; untreated 6.3
T1 construct: endogenous in cells; host or cells: C. albicans ATCC 90028; clinical isolates C. albicans D27 (FLC-susceptible) and D15.9 (FLC-resistant); mid-log phase whole cells
Protocol: In yeast cells, plasma membrane H^+-ATPase helps to maintain internal pH between 6.0 and 7.5. Intracellular pH (pHi) was measured as reported earlier by Manzoor et al.. Mid-log phase cells were harvested from SD medium and washed thrice with PBS. Subsequently, cells (0.1 g) were suspended in 5 mL solution of 0.1 M KCl, and 0.1 mM CaCl2 in distilled water. Compounds 3a and 3b were added to the suspension at a desired concentration of 100 μg/mL. […] Initial pH of the suspension was adjusted to 7.0 in each case and incubated for 30 min at 37°C with constant stirring. After incubation, the pH of suspension was again adjusted to 7.0 followed by the addition of nystatin (20 μM) and incubation at 37°C for 1 h. The change in pH of the suspension was monitored on a pH meter with constant stirring. The value of external pH at which nystatin permeabilization induced no further shift was taken as an estimate of pHi.

[4] = tested on: phospholipase secretion; test: Phospholipase assay (egg yolk agar, Pz value); type: cell-based, C. albicans ATCC 90028
Protocol: (§2) Phospholipase activity was performed using the method of Price et al. (1982) with minor modifications. The cells were incubated at 37°C for 18 h and then centrifuged at 3000 rpm for 5 min. The pellet obtained was washed with PBS twice to remove the residual culture medium. […] Volumes of 1 μL were placed at equidistant points on phospholipase agar media plates (1% peptone; 3% glucose; 5.73% NaCl; 0.055% CaCl2 with 10% (v/v) egg yolk emulsion) and incubated at 37°C for 4 days. The secretion of phospholipases was determined by the formation of opaque zones due to precipitation around the yeast colonies. The assay was conducted in duplicate. Pz values were calculated as follows: Pzvalue=diameterofcolony/diameterofcolony+diameterofzoneofprecipitaion

[5] = tested on: proteinase secretion; test: Proteinase assay (BSA agar, Pz value); type: cell-based, C. albicans D15.9 (FLC-resistant); conditions: for Decrease of proteinase secretion: at MIC, 1 h exposure
Protocol: Following incubation, 1.5 mL of the yeast culture was taken into micro centrifuge tubes and centrifuged at 3000 rpm, for 5 min. The pellet obtained was washed by phosphate buffer saline (PBS) twice to remove the residual medium. […] Volumes of 1μL were placed at equidistant points on proteinase agar medium (0.1% yeast nitrogen base w/o amino acids; 0.145% ammonium sulfate; 2% glucose with 0.2% (w/v) BSA fraction V mixed into agar at ∼40°C) and incubated at 37°C for 3 days. The experiment was performed in duplicate. Secreted proteinase enzyme will degrade BSA and form zone of clearance around the yeast colonies. An index (Pz value) was used to represent the extent of proteinase activity by different strains of C. albicans. A Pz value of 1.0 depicts no enzyme activity. It was calculated as follows: Pzvalue=diameterofcolony/diameterofcolony+diameterofzoneofdegradation

[6] = tested on: phospholipase secretion; test: Phospholipase assay (egg yolk agar, Pz value); type: cell-based, C. albicans D27 (FLC-susceptible)
Protocol: as §2

[7] = tested on: C. albicans ATCC 90028; test: Transmission electron microscopic analysis of morphology; type: cell-based; conditions: MIC, 1 h exposure
Protocol: The morphology of C. albicans ATCC 90028 was analyzed using TEM following the standard protocol. […] Cells were then washed thrice with phosphate buffer solution to remove the residual medium and fixed overnight in 2.5% glutaraldehyde in phosphate/magnesium buffer (40 mM K2HPO4/KH2PO4, pH 6.5–0.5 mM MgCl2). Cells were washed twice for 15 min in 0.1 M sodium phosphate buffer (pH 6.0) and post-fixed for 2 h in 2% osmium tetroxide. Cells were again washed twice for 15 min in distilled water and then en bloc stained with 1% uranyl acetate (aqueous) for 30 min. After two further washes, cells were dehydrated in 95% and 100% ethanol. Cells were then exposed to propylene oxide for 2×10 min and infiltrated for 1 h in 1:1 propylene/epoxy embedding material (Epon) mixture and then overnight in fresh Epon. After polymerization for 48 h at 60°C, ultrathin sections were cut using a microtome (LeicaEM UC6) and transferred to a copper grid. Samples were stained with uranyl acetate (saturated solution of uranyl acetate in 50% alcohol) followed by lead citrate. Samples were washed three times in Milli-Q (MQ) water and dried by touching Whatman filter paper. Sections were examined with a FEI Tecnai G^2 TF20 transmission electron microscope at 200 KV.

[8] = tested on: C. albicans; test: Disk diffusion assay, appearance of zones (strains not distinguished); type: cell-based
Protocol: Disk diffusion assay was performed using C. albicans ATCC 90028 (standard), the two clinical isolates, C. albicans D27 (FLC-susceptible), and C. albicans D15.9 (FLC-resistant) for the lead inhibitors 3a and 3b. The C. albicans cells were inoculated into liquid SD medium and grown over night at 37°C. The cells were then centrifuged at 3000 rpm for 5 min, washed three times with PBS and then suspended in PBS again. Approximately, 10^5 cells/mL were inoculated into molten SD agar medium at 42°C and poured into 100-mm-diameter petriplates. Sterilized 4 mm disks of Whatman paper were placed on solid agar and 1, 2, and 4 μL of 3a and 2, 4, and 8 μL of 3b from the stock solution of 10 mg/mL were spotted on the disk. […] The diameter of zone of inhibition (ZOI) was recorded in millimetres after 48 h and was compared with that of control. This experiment was repeated thrice and values were shown in terms of mean ±standard error of mean.

T1 sequence (P28877 whole entry): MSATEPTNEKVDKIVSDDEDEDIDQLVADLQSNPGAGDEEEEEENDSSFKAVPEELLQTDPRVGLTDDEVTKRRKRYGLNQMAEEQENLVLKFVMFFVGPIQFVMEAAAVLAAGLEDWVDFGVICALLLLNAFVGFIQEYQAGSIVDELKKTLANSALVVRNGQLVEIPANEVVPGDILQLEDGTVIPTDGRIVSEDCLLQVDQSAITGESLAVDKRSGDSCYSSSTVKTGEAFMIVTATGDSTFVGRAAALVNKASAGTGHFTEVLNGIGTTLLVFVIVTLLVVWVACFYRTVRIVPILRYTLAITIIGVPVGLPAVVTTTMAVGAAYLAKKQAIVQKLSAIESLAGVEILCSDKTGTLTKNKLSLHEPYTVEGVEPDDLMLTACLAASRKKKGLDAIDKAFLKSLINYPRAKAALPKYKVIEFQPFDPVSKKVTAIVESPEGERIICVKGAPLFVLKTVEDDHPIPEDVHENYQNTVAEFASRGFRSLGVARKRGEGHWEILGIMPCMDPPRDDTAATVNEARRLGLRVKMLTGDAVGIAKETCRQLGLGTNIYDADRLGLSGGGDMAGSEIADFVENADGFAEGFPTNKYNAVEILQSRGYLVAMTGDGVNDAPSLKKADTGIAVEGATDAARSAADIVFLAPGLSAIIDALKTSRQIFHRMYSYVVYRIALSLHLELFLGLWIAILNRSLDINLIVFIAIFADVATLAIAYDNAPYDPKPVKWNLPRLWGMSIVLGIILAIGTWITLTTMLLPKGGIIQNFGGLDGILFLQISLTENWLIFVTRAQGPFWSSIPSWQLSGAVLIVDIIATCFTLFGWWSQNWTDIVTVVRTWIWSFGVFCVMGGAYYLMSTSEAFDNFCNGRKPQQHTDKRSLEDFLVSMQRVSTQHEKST

Row | SMILES | IC50 [1] | IC50 [2] | Intracellular pH (pHi) [3] | Decrease of phospholipase secretion ([4]; at MIC, 1 h exposure) | Decrease of phospholipase secretion ([4]; at MIC/4, 1 h exposure) | Decrease of proteinase secretion (fold) ([5]; Fig 4 legend) | Decrease of proteinase secretion [5] | Decrease of phospholipase secretion ([6]; at MIC, 1 h exposure) | Decrease of phospholipase secretion ([6]; at MIC/4, 1 h exposure) | Cell morphology by TEM [7] | Appearance of zone around disks (clear = fungicidal nature, turbid = fungistatic nature) [8] | Phospholipase activity after treatment ([4]; Fig 4 legend)
1 | c1ccc(Cn2cc(COc3cccc4cccnc34)nn2)cc1 [Compound 3a] | 4.1 ± 0.02 µg/mL (≈ 13 µM) | 3.6 ± 0.07 µg/mL (≈ 11.4 µM) | 5.2 | 43% | 40% | two fold | 45% | 42% | 25% | several deformations | clear | –
2 | Clc1ccc(OCc2cn(Cc3ccccc3)nn2)c2ncccc12 [Compound 3b, 8-((1-Benzyl-1H-1,2,3-triazol-4-yl)methoxy)-5-chloroquinoline] | 47.1 ± 0.39 µg/mL (≈ 134 µM) | 23.6 ± 0.83 µg/mL (≈ 67.3 µM) | 4.7 | 68% | 32% | – | 23.5% | 46% | 34% | several deformations | turbid | No phospholipase activity
